Test results taken from ChEMBL document CHEMBL1201862, “PubChem BioAssay data set” (2004).
The source made the active and inactive calls.

Assays:
[1] = Luminescence Cell-Based Dose Response HTS to Identify Activators of Luciferase Translation or Activity in H4 […] Cells. [Related pubchem assays: 1829 (Project Summary), 1814 (Primary HTS)]; format: functional
H4 = assay: Luminescence Cell-Based Dose Response HTS to Identify Activators of 5'UTR Stem-Loop Driven Prion Protein mRNA Translation in H4 Neuroglioblastoma Cells. [Related pubchem assays: 1829 (Project Summary), 1814 (Primary HTS)]; format: functional; conditions: Homo sapiens
Cytochrome P450 2D6 = Cytochrome P450 2D6 (Homo sapiens, UniProt P10635);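 further: CYP2D6 member of a cytochrome P450 panel assay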
Cytochrome P450 2D6, sequence (P10635 whole entry): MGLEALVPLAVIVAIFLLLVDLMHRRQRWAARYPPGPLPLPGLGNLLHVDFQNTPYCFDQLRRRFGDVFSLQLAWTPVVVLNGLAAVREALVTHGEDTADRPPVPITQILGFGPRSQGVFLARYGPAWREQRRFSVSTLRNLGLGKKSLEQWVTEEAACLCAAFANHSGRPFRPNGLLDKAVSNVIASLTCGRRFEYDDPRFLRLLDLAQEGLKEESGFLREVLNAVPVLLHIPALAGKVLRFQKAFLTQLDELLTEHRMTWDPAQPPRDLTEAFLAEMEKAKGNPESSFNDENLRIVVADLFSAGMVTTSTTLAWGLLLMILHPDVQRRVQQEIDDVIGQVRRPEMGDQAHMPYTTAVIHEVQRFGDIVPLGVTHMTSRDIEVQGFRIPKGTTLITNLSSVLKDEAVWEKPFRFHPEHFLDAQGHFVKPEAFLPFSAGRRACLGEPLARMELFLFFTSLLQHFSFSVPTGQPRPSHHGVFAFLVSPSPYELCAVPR

Cytochrome P450 2C9 = Cytochrome P450 2C9 (Homo sapiens, UniProt P11712)
Cytochrome P450 2C9, sequence (P11712 whole entry): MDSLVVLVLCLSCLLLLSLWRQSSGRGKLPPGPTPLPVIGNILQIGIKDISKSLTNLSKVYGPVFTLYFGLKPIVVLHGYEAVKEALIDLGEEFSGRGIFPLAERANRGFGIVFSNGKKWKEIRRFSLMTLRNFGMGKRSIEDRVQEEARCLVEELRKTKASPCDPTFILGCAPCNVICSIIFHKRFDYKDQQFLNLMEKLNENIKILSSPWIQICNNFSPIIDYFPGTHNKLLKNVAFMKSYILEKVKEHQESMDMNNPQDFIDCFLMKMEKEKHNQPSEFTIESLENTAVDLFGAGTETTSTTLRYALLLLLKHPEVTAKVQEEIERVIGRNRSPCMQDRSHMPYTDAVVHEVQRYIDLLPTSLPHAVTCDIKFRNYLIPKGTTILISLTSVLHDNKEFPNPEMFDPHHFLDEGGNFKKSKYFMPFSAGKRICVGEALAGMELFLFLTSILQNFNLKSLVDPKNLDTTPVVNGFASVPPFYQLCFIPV

Cytochrome P450 1A2 = molecular target: T1, Cytochrome P450 1A2 (Homo sapiens, UniProt P05177);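 further: PubChem cytochrome P450 panel assay, CYP1A2 panel member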
T1 sequence (P05177 whole entry): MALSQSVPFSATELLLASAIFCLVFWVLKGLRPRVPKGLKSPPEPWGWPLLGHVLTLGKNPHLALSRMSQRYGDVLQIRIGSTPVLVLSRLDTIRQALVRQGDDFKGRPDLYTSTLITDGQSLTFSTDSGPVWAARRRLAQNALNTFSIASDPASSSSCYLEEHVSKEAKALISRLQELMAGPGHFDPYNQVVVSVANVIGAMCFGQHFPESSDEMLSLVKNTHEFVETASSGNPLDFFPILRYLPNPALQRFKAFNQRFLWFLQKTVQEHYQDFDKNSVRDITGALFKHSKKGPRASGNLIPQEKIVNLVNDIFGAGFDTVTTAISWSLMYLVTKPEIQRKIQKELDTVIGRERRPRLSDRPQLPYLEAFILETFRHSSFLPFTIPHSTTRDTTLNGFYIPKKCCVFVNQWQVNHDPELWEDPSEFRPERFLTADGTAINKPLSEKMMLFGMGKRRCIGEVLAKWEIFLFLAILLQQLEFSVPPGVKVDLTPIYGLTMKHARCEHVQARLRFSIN

[2] = Luminescence Cell-Based Dose Confirmation HTS to Identify Activators of 5'UTR Stem-Loop Driven Alpha-Synuclein mRNA Translation in H4 Neuroglioblastoma Cells. [Related pubchem assays: 1829 (Project Summary), 1814 (Primary HTS)]; format: functional
[3] = molecular target: T2, Rac GTPase-activating protein 1 (Homo sapiens, UniProt Q9H0H5); assay: MgcRacGAP GTPase-activating activity inhibitors, confirmation, biochemical, ADP Hunter fluorescence, primary and confirmatory (AID 624330); format: functional
T2 sequence (Q9H0H5 whole entry): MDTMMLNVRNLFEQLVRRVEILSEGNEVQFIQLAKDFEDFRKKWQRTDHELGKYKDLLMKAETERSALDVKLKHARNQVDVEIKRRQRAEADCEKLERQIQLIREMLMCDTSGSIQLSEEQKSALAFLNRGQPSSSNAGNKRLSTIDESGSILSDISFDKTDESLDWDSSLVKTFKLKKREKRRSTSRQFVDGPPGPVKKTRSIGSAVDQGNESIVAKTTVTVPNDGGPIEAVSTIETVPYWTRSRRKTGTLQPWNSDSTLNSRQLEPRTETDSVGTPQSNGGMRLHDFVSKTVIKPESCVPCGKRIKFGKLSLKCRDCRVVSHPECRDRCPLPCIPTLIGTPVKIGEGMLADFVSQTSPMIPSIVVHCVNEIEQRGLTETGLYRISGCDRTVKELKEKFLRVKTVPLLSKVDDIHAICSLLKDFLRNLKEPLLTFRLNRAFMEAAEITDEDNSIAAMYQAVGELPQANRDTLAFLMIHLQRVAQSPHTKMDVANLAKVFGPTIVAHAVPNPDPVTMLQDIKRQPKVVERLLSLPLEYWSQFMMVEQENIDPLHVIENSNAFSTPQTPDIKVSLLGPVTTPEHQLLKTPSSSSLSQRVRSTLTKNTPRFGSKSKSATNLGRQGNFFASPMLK

Cytochrome P450 3A4 = Cytochrome P450 3A4 (Homo sapiens, UniProt P08684);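 further: CYP3A4 tested as one member of a cytochrome P450 panel screen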
Cytochrome P450 3A4, sequence (P08684 whole entry): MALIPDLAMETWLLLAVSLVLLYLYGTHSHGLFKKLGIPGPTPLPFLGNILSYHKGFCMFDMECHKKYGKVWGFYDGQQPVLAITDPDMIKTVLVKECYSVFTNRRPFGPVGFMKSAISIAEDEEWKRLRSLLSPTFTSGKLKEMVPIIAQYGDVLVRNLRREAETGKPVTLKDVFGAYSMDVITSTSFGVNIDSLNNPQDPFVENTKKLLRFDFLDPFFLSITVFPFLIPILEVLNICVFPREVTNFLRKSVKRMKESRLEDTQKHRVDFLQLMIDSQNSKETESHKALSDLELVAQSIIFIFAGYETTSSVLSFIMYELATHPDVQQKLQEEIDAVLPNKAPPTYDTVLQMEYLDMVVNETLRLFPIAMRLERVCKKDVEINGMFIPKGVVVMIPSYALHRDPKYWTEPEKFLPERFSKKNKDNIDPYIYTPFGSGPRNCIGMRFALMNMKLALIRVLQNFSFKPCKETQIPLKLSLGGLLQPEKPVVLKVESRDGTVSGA

Cytochrome P450 2C19 = Cytochrome P450 2C19 (Homo sapiens, UniProt P33261); assay: Cytochrome panel assay with activity outcomes. Panel member name: p450-cyp2c19 Compounds with AC50 equal or less than 10 uM are considered active; format: functional; conditions: read-out: AC50
Cytochrome P450 2C19, sequence (P33261 whole entry): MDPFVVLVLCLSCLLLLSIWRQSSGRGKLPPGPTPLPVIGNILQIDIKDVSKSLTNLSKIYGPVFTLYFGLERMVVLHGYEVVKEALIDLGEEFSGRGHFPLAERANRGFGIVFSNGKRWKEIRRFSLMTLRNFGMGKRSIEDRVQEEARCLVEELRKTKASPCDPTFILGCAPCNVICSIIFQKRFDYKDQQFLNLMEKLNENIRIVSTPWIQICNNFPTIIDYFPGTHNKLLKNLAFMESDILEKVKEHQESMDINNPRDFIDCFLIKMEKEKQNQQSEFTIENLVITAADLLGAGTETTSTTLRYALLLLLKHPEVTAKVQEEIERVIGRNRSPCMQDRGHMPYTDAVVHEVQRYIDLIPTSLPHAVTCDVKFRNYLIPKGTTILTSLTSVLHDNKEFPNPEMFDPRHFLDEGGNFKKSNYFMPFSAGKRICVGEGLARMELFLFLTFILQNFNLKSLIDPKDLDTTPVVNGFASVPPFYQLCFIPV

[4] = inhibitors of intracellular T. cruzi replication, confirmation, NIH3T3 host cells, beta-gal luminescence (AID 2044); format: functional, cell-based;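 further: intracellular parasites grown in NIH/3T3 mouse fibroblasts as host cells; luminescent beta-galactosidase reporter signal from transgenic T. cruzi replicating inside host cells; inhibitors lower the luminescence signal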
[5] = cytotoxicity toward NIH3T3 fibroblasts, dose response, counter-screen, cell-based, ATP luminescence, mouse fibroblasts (AID 2010); format: functional;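 further: cells exposed to compound for about 90 hours before reading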
[6] = Luminescence Cell-Based Dose Retest to Confirm Inhibitors of Cancer Stem Cells. [Related pubchem assays (depositor defined):AID2717, AID2721]; format: functional; conditions: Homo sapiens

Oc1c2c(nc3cc(-c4ccccc4Cl)nn13)CCS2
EC50 [1]: 2.34 µM (active) | EC50 (H4): 21.7 µM (active)

O=C(CCCCn1c(=S)[nH]c2ccsc2c1=O)NCc1ccco1
AC50 (Cytochrome P450 2D6): 39.8 µM (inconclusive)

Cc1nc(SCC(=O)c2ccc(F)cc2)c([N+](=O)[O-])[nH]1
AC50 (Cytochrome P450 2C9): 20 µM (inconclusive)

Cc1nn(-c2ccccc2)c(Cl)c1C(=O)Nc1c(C)n(C)n(-c2ccccc2)c1=O
AC50 (Cytochrome P450 1A2): 5.01 µM (inconclusive) | AC50 (Cytochrome P450 2C9): 20 µM (inconclusive)

O=C(CCc1ccccc1)Nc1ccc(Cl)cn1
EC50 [2]: > 120 µM (not active) | EC50 [1]: 1.18 µM (active) | EC50 (H4): 19.8 µM (active)

O=C(O)C1CSC(c2ccco2)N1 (centres undefined)
IC50 [3]: 70.6 µM (active)

CCCCOc1ccc(-c2nnn(CC(=O)NCc3ccco3)n2)cc1
EC50 [2]: > 120 µM (not active) | EC50 [1]: 24.3 µM (active) | EC50 (H4): 10 µM (active)

COc1ccc(C2=C/C(=C\c3ccccc3OC(C)=O)C(=O)O2)cc1
EC50 [2]: 18.6 µM (active) | EC50 [1]: 90 µM (active) | EC50 (H4): 48.4 µM (active)

COc1ccc2c(c1OC)C(=O)N1c3ccccc3SC21 (centres undefined)
EC50 [1]: 0.124 µM (active) | EC50 (H4): 0.179 µM (active)

CC(C)NC(=O)CSc1nnc(C2CC2)n1-c1ccccc1
AC50 (Cytochrome P450 2C9): 31.6 µM (inconclusive) | AC50 (Cytochrome P450 3A4): 25.1 µM (inconclusive)

C=CCNCC(O)COc1ccc(C(C)=O)cc1OC (centres undefined)
IC50 [3]: 131 µM (active)

CC1CCCCC12NC(=O)N(CC(=O)NC(=O)Nc1ccc3c(c1)OCCO3)C2=O (centres undefined)
EC50 [2]: 0.111 µM (active) | EC50 [1]: 0.483 µM (active) | EC50 (H4): 0.117 µM (active)

O=C(c1cc(-c2ccc3c(c2)OCO3)on1)N1CCN(c2ccccc2)CC1
EC50 [2]: 0.793 µM (active) | EC50 [1]: 0.817 µM (active) | EC50 (H4): 4.67 µM (active)

CCCCNc1ncnc2c1cnn2-c1ccccc1
EC50 (H4): 27.1 µM (active)

S=C(NCCN1CCOCC1)Nc1ccc(-c2nc3ccccc3[nH]2)cc1
EC50 [2]: 16.3 µM (active) | EC50 [1]: 10.7 µM (active) | EC50 (H4): 16.5 µM (active)

CC1CCc2c(nc3ncnn3c2NCCc2ccccc2F)C1 (centres undefined)
EC50 [2]: > 120 µM (not active) | EC50 [1]: > 120 µM (not active) | EC50 (H4): > 120 µM (not active)

O=C(O)c1nnsc1-c1ccc(-c2snnc2C(=O)O)cc1
AC50 (Cytochrome P450 2C9): 7.94 µM (inconclusive)

COc1cccc2[nH]c(C(=O)NN)c(N)c12
IC50 [3]: 99.4 µM (active)

c1nc(NC2CC2)c2cc(-c3ccoc3)ccc2n1
AC50 (Cytochrome P450 2C19): 20 µM (inconclusive) | AC50 (Cytochrome P450 2D6): 39.8 µM (inconclusive) | AC50 (Cytochrome P450 3A4): 5.01 µM (inconclusive)

O=C(NC(=S)Nc1ccc(O)cc1)C1CCCC1
IC50 [3]: 29.6 µM (active)

COc1ccccc1CNc1cc(-c2c(C)noc2C)ncn1
AC50 (Cytochrome P450 2C19): 25.1 µM (inconclusive) | AC50 (Cytochrome P450 2D6): 25.1 µM (inconclusive) | AC50 (Cytochrome P450 3A4): 39.8 µM (inconclusive)

COC(=O)c1ccc(NC(=S)N2CCN(Cc3cccc(C)c3)CC2)cc1
AC50 (Cytochrome P450 2D6): 35.5 µM (inconclusive)

CCn1c(=N)n(CC(=O)C23CC4CC(CC(C4)C2)C3)c2ccccc21
EC50 [4]: 0.223 µM (active) | EC50 [5]: > 60 µM (not active)

Clc1cccc(Cl)c1/C=C/c1cc[nH]n1
EC50 [2]: > 120 µM (not active) | EC50 [1]: 41.2 µM (active) | EC50 (H4): 27 µM (active)

O=C(NC(=S)Nc1cccc(Cl)c1N1CCCCC1)c1cccs1
AC50 [6]: 2.08 µM (active)

COC(=O)c1cc(Br)c(=O)n(CCN2CCCC2)c1
AC50 (Cytochrome P450 1A2): 12.6 µM (inconclusive) | AC50 (Cytochrome P450 2C9): 39.8 µM (inconclusive) | AC50 (Cytochrome P450 2C19): 39.8 µM (inconclusive) | AC50 (Cytochrome P450 2D6): 17.8 µM (inconclusive)

CCCOC(=O)c1c(NC(=O)/C=C/c2cnn(C)c2C)sc(C(=O)OCC)c1C
AC50 (Cytochrome P450 1A2): 17.8 µM (inconclusive) | AC50 (Cytochrome P450 2C9): 39.8 µM (inconclusive) | AC50 (Cytochrome P450 2C19): 10 µM (inconclusive) | AC50 (Cytochrome P450 3A4): 15.8 µM (inconclusive)

c1ccc(NC2=Nc3ccccc3CC2)cc1
EC50 [2]: 10.9 µM (active) | EC50 [1]: 21.1 µM (active) | EC50 (H4): > 120 µM (not active)

OCCNCCSc1nc(C2CCCCC2)n(-c2ccccc2Cl)n1
IC50 [3]: 120 µM (active)

O=C(NCCN1CCOCC1)c1ccc2ccccc2c1
AC50 (Cytochrome P450 1A2): 31.6 µM (inconclusive) | AC50 (Cytochrome P450 2D6): 15.8 µM (inconclusive)

CCN(CC)S(=O)(=O)c1ccc(C)c(NC(=O)CN2CCN(Cc3ccccc3)CC2)c1
IC50 [3]: 84.8 µM (active)

CC1Cc2ccccc2N1C(=O)CSc1nnnn1C(C)C (centres undefined)
AC50 (Cytochrome P450 1A2): 15.8 µM (inconclusive) | AC50 (Cytochrome P450 2C9): 14.1 µM (inconclusive) | AC50 (Cytochrome P450 3A4): 15.8 µM (inconclusive)

O=C(Nc1ccnc(-c2cccnc2)n1)c1ccccc1Cl
AC50 (Cytochrome P450 2C19): 14.1 µM (inconclusive) | AC50 (Cytochrome P450 2D6): 11.2 µM (inconclusive)

COC(=O)N1CCC[C@@]2(CCN(C(=O)Nc3cccc(F)c3)C2)C1
AC50 (Cytochrome P450 1A2): 15.8 µM (inconclusive) | AC50 (Cytochrome P450 2C9): 39.8 µM (inconclusive) | AC50 (Cytochrome P450 3A4): 12.6 µM (inconclusive)

Cc1ccc(-c2nc3ncccc3o2)cc1NC(=O)c1ccc([N+](=O)[O-])o1
EC50 [2]: > 120 µM (not active) | EC50 [1]: > 120 µM (not active) | EC50 (H4): > 120 µM (not active)

CC(=O)Oc1ccc(C#C/C=C2\c3ccccc3C(=O)N2c2ccccc2)cc1
AC50 [6]: 2.25 µM (active)

CCc1nnc(SCc2ccc(OC(C)C)cc2)n1N
AC50 (Cytochrome P450 1A2): 15.8 µM (inconclusive) | AC50 (Cytochrome P450 2C9): 0.00562 µM (inconclusive) | AC50 (Cytochrome P450 3A4): 14.1 µM (inconclusive)

COC(=O)C1=C(N)Oc2cc(C)n(CC3CCCO3)c(=O)c2C1c1ccccc1OC (centres undefined)
AC50 (Cytochrome P450 2C9): 28.2 µM (inconclusive) | AC50 (Cytochrome P450 2C19): 22.4 µM (inconclusive)

CCOC(=O)c1[nH]c(C(=O)O)c(CCN(CC)CC)c1C
AC50 (Cytochrome P450 1A2): 39.8 µM (inconclusive) | AC50 (Cytochrome P450 2D6): 3.98 µM (inconclusive)

CC1(C)CCC[C@]2(C)[C@H]3Cc4cc(O)ccc4O[C@]3(C)CC[C@@H]12
AC50 [6]: 4.75 µM (active)

Cc1ccc(C2CC(C(F)(F)F)n3nc(C(=O)NCCN4CCOCC4)cc3N2)cc1 (centres undefined)
AC50 (Cytochrome P450 1A2): 1 µM (inconclusive) | AC50 (Cytochrome P450 2C9): 12.6 µM (inconclusive)

COc1ccc(N2CCN(c3nc(Nc4ccc(F)cc4)nc(OC)n3)CC2)cc1
AC50 (Cytochrome P450 1A2): 3.16 µM (inconclusive) | AC50 (Cytochrome P450 2C9): 3.55 µM (inconclusive) | AC50 (Cytochrome P450 3A4): 3.16 µM (inconclusive)

N=C1c2ccccc2CN1NC(=O)c1ccc(F)cc1
AC50 (Cytochrome P450 2C9): 17.8 µM (inconclusive) | AC50 (Cytochrome P450 2C19): 28.2 µM (inconclusive)

Cn1c(=O)[nH]c(NCCc2ccc(O)cc2)c([N+](=O)[O-])c1=O
IC50 [3]: 219 µM (active)

COc1cc2c(cc1N)-c1ccc(N)cc1C2=O
IC50 [3]: 12.3 µM (active)

Cc1sc2ncnc(N/N=C/c3ccc(O)cc3)c2c1C
IC50 [3]: 37.6 µM (active)

O=C(O)c1cc(N/N=C/c2c(O)ccc3ccccc23)ccc1Cl
IC50 [3]: 35.7 µM (active)

CC(/C=N/NC(=O)Cc1cccs1)=C\c1ccco1
AC50 (Cytochrome P450 2D6): 14.1 µM (inconclusive)

CC/C(=N\O)c1ccc(O)c(OC)c1
IC50 [3]: 45.2 µM (active)

COc1cc(/C=N\N=C2/SC(CC(=O)O)C(=O)N2c2ccc(O)cc2)ccc1O (centres undefined)
IC50 [3]: 78.1 µM (active)

CN(C)S(=O)(=O)c1ccc2c(c1)/C(=C/c1cc3c([nH]1)CCCC3)C(=O)N2
AC50 (Cytochrome P450 2C9): 10 µM (inconclusive) | AC50 (Cytochrome P450 2C19): 7.94 µM (inconclusive) | AC50 (Cytochrome P450 2D6): 31.6 µM (inconclusive)

CC=C(/C(=C/C)c1ccc(O)cc1)c1ccc(O)cc1 [DIENESTROL]
AC50 (Cytochrome P450 1A2): 15.8 µM (inconclusive) | AC50 (Cytochrome P450 2D6): 15.8 µM (inconclusive)
